Laboratory results from publication PMC9271048, “Probing strigolactone perception mechanisms with rationally designed small-molecule agonists stimulating germination of root parasitic weeds” (Nature Communications, 2022).
Like-named read-outs stand apart in the source and are kept apart here.

Key:
ShHTL7 [1] = target: T1, ShHTL7 (Striga hermonthica, UniProt A0A0M3PNA2); test: Competitive inhibition of ShHTL7 with Yoshimulactone Green (YLG) as substrate; assay type: biochemical
How it was run: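 YLG hydrolysis by ShHTL7 followed by fluorescence (ex 480/em 520 nm) every 1 min for 30 min; compounds and YLG from fresh DMSO stocks. After subtracting no-enzyme background, the linear 8-min increase was used; IC50 fitted from relative inhibition versus compound concentration.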

P. aegyptiaca seeds = test: P. aegyptiaca seed germination assay; assay type: in vivo, Phelipanche aegyptiaca; conditions: for EC50: Phelipanche aegyptiaca
How it was run: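 P. aegyptiaca seeds, sterilized in 1% NaClO, preconditioned in the dark at 25 °C for 4 days on glass-fiber discs, then given test compound in water with 1‰ acetone. Incubated dark at 25 °C for a week; germination scored under ×20 magnification, three biological repeats; rac-GR24 positive control.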

ShHTL7 [2] = target: T1, ShHTL7; test: ShHTL7-hydrolysis reaction analysis (HPLC); assay type: biochemical; conditions: 10 μM compound, 30 °C, 30 min
How it was run: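 Compounds at 10 μM were incubated with 10 μg recombinant ShHTL7 or its mutants in PBS (pH 7.3) at 30 °C for 30 min, then quenched with methanol. The remaining compound was quantified by HPLC, and hydrolysis was expressed relative to a protein-free buffer control (n = 3).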

[3] = tested on: ShHTLs (10 HTL proteins in S. hermonthica); test: YLG-based competition assay on HTL proteins of S. hermonthica; assay type: biochemical, Striga hermonthica; conditions: Supplementary Fig. 27
How it was run: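 Competition with fluorogenic substrate YLG ([…]) for hydrolysis by each HTL or KAI2 protein; fluorescence (Ex 480/Em 520 nm) recorded every 1 min for 30 min. Linear 8-min increase, background hydrolysis subtracted, used; IC50 from fitted relative inhibition versus concentration.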

T1 sequence (A0A0M3PNA2 entry or part of it): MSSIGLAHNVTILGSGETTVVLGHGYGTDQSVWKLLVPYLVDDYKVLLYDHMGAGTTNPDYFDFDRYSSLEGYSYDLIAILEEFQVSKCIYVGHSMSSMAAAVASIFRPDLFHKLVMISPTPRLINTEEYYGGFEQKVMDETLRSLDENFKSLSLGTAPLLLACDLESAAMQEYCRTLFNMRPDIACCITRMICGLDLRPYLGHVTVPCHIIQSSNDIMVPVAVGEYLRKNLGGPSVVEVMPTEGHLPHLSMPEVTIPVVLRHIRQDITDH

## CC1=C[C@H](OC(=O)N2CCN(C(=O)COc3ccc(Br)cc3C)CC2)OC1=O [(S)-4a]
ShHTL7 [1]; ShHTL7, YLG competition, Supplementary Fig. 27, read-out: IC50, replicate 1
  IC50: 1.06 µM
ShHTL7 [1]; ShHTL7, YLG competition, Supplementary Fig. 27, read-out: IC50, replicate 2
  IC50: 0.837 µM
ShHTL7 [1]; ShHTL7, YLG competition, Supplementary Fig. 27, read-out: IC50, replicate 3
  IC50: 0.921 µM
ShHTL7 [1]; ShHTL7, average of 3 replicates, Supplementary Fig. 27, read-out: IC50, average
  IC50: 0.938 µM
ShHTL7 [1]; YLG as substrate, text and Fig. 2, read-out: IC50, competitive ShHTL7 inhibition (YLG assay)
  IC50: 0.94 ± 0.11 µM
ShHTL7 [1]; wild-type ShHTL7, average of 3, source data of Fig. 2a,b, Supplementary Figs. 8a, 9a, 20b, read-out: IC50, competitive ShHTL7 inhibition (YLG), source data average
  IC50: 0.938 µM
P. aegyptiaca seeds; read-out: EC50, P. aegyptiaca seed germination
  EC50: 33.9 pM
P. aegyptiaca seeds; source data of Fig. 2c and Supplementary Fig. 8b, average of 3, read-out: P. aegyptiaca germination EC50 values, source data average (converted)
  EC50: 21 pM
P. aegyptiaca seeds; in vivo
  fold improved P. aegyptiaca seed germination activity, (S)-4a versus (R)-4a: over 40,000 fold
ShHTL7 [2]
  hydrolysis by ShHTL7: 40.1%
ShHTL7 [2]; Supplementary Figs. 11, 20a, 24a
  relative percentage of hydrolysis by ShHTL7, source data average: 40.0583%
[3]; ShHTL2, YLG competition, read-out: IC50, replicate 1
  IC50: 44 µM
[3]; ShHTL2, YLG competition, read-out: IC50, replicate 2
  IC50: 49.8 µM
[3]; ShHTL2, YLG competition, read-out: IC50, replicate 3
  IC50: 48.4 µM
[3]; ShHTL2, average of 3 replicates, read-out: IC50, average
  IC50: 47.4 µM
[3]; ShHTL3, YLG competition, read-out: IC50, replicate 1
  IC50: 16.8 µM
[3]; ShHTL3, YLG competition, read-out: IC50, replicate 2
  IC50: 15.4 µM
[3]; ShHTL3, YLG competition, read-out: IC50, replicate 3
  IC50: 14.7 µM
[3]; ShHTL3, average of 3 replicates, read-out: IC50, average
  IC50: 15.7 µM
[3]; ShHTL4, YLG competition, read-out: IC50, replicate 1
  IC50: 2.17 µM
[3]; ShHTL4, YLG competition, read-out: IC50, replicate 2
  IC50: 2.91 µM
[3]; ShHTL4, YLG competition, read-out: IC50, replicate 3
  IC50: 2.59 µM
[3]; ShHTL4, average of 3 replicates, read-out: IC50, average
  IC50: 2.56 µM
[3]; ShHTL5, YLG competition, read-out: IC50, replicate 1
  IC50: 5.38 µM
[3]; ShHTL5, YLG competition, read-out: IC50, replicate 2
  IC50: 6.82 µM
[3]; ShHTL5, YLG competition, read-out: IC50, replicate 3
  IC50: 5.43 µM
[3]; ShHTL5, average of 3 replicates, read-out: IC50, average
  IC50: 5.88 µM
[3]; ShHTL6, YLG competition, read-out: IC50, replicate 1
  IC50: 9.92 µM
[3]; ShHTL6, YLG competition, read-out: IC50, replicate 2
  IC50: 6.62 µM
[3]; ShHTL6, YLG competition, read-out: IC50, replicate 3
  IC50: 7.62 µM
[3]; ShHTL6, average of 3 replicates, read-out: IC50, average
  IC50: 8.05 µM
[3]; ShHTL8, YLG competition, read-out: IC50, replicate 1
  IC50: 12 µM
[3]; ShHTL8, YLG competition, read-out: IC50, replicate 2
  IC50: 7.84 µM
[3]; ShHTL8, YLG competition, read-out: IC50, replicate 3
  IC50: 5.8 µM
[3]; ShHTL8, average of 3 replicates, read-out: IC50, average
  IC50: 8.54 µM
[3]; ShHTL9, YLG competition, read-out: IC50, replicate 1
  IC50: 10.9 µM
[3]; ShHTL9, YLG competition, read-out: IC50, replicate 2
  IC50: 19 µM
[3]; ShHTL9, YLG competition, read-out: IC50, replicate 3
  IC50: 16.2 µM
[3]; ShHTL9, average of 3 replicates, read-out: IC50, average
  IC50: 15.4 µM
[3]; ShHTL10, YLG competition, read-out: IC50, replicate 1
  IC50: 11.7 µM
[3]; ShHTL10, YLG competition, read-out: IC50, replicate 2
  IC50: 11.6 µM
[3]; ShHTL10, YLG competition, read-out: IC50, replicate 3
  IC50: 12.8 µM
[3]; ShHTL10, average of 3 replicates, read-out: IC50, average
  IC50: 12 µM
[3]; ShHTL11, YLG competition, read-out: IC50, replicate 1
  IC50: 6.48 µM
[3]; ShHTL11, YLG competition, read-out: IC50, replicate 2
  IC50: 5.76 µM
[3]; ShHTL11, YLG competition, read-out: IC50, replicate 3
  IC50: 3.77 µM
[3]; ShHTL11, average of 3 replicates, read-out: IC50, average
  IC50: 5.34 µM
